Measured values from patent US8273780B2, “Polycyclic antagonists of lysophosphatidic acid receptors” (Amira Pharmaceuticals, Inc., priority 2009, dated 2012).

How the values were obtained:
BALB/c mice = assay: Mouse dermal vascular leak assay; format: in vivo; settings: 30 mg/kg oral gavage, three hours before dye; intradermal LPA 30 μg
Method: Female BALB/c mice (Harlan) weighing 20-25 grams were given free access to standard mouse chow and water and were allowed to acclimate for two weeks prior to study initiation. Compound 1 was prepared in water vehicle at a concentration of 3 mg/ml and delivered by oral gavage at a volume of 10 ml/kg to yield a dose of 30 mg/kg. Three hours following dose, mice were placed into a restraining device and given Evan's blue dye intravenously by tail vein injection (0.2 ml of a 0.5% solution). Mice were then anesthetized using 3% isoflurane anaesthesia to allow for intradermal injection of LPA (30 μg in 20 μl 0.1% fatty acid free BSA). Thirty minutes after LPA injection mice were sacrificed by CO2 inhalation and the skin removed from the challenge site and placed into 2 ml formamide for overnight extraction of Evan's blue dye.
Following extraction, a 150 μl aliquot of formamide for each tissue sample was placed into a 96 well plate and read at 610 nm using a photospectometer. The resulting data (OD units) were plotted using GraphPad Prizm. In this experiment compound 1 reduced LPA-induced Evan's blue dye leak into the skin.

[1] = test system: human A2058 melanoma cells; assay: LPA1 chemotaxis assay; format: cell-based; settings: 100 nM LPA, read-out: inhibition of LPA-driven chemotaxis IC50
Method: Chemotaxis of the A2058 human melanoma cells was measured using the Neuroprobe ChemoTx® System plates (8 μM pore size, 5.7 mm diameter sites). The filter sites were coated with 0.001% fibronectin (Sigma) in 20 mM Hepes, pH 7.4 and allowed to dry. A2058 cells were serum-starved for 24 hours, then harvested with Cell Stripper and resuspended in DMEM containing 0.1% fatty-acid-free bovine serum albumin (BSA) to a concentration of 1×10^6/ml. Cells were mixed with an equal volume of test compound (2×) in DMEM containing 0.1% fatty-acid-free BSA and incubated at 37° C. for 15 minutes. LPA (100 nM in DMEM containing 0.1% fatty-acid-free BSA) or vehicle was added to each well of the lower chamber and 50 μl of the cell suspension/test compound mix was applied to the upper portion of the ChemoTx plate. Plates were incubated at 37° C. for three hours and then the cells removed from the upper portion by rinsing with PBS and scraping. The filter was dried then stained with HEMA 3 Staining System (Fisher Scientific). The absorbance of the filter was read at 590 nm and IC50s were determined using Symyx Assay Explorer.

C57B1/6 mice = assay: Bleomycin-induced lung fibrosis model in mice; format: in vivo; settings: for total lung collagen: chronic setting (14 day bleomycin model)
Text: Female C57B1/6 mice (Harlan, 25-30 g) are housed 4 per cage, given free access to food and water and allowed to acclimate for at least 7 days prior to test initiation. After the habituation phase, mice are lightly anesthetized with isoflurane (5% in 100% O2) and administered with bleomycin sulfate (0.01-5 U/kg, Henry Schein) via intratracheal instillation (Cuzzocrea S et al. Am J Physiol Lung Cell Mol Physiol. 2007 May; 292(5):L1095-104. Epub 2007 Jan. 12.). Mice are returned to their cages and monitored daily for the duration of the experiment. Test compound or vehicle is delivered po, ip or sc daily. The route and frequency of dosing is based on previously determined pharmacokinetic properties. All animals are sacrificed using inhaled isoflurane 3, 7, 14, 21 or 28 days after bleomycin instillation. Following sacrifice, mice are intubated with a 20 gauge angiocatheter attached to a 1 ml syringe. Lungs are lavaged with saline to obtain bronchoalveolar lavage fluid (BALF) and then removed and fixed in 10% neutral buffered formalin for subsequent histopathological analysis. BALF is centrifuged for 10 min at 800×g to pellet the cells and the cell supernatant removed and frozen at −80° C. for subsequent protein analysis using the DC protein assay kit (Biorad, Hercules, Calif.) and soluble collagen analysis using Sircol (Biocolor Ltd, UK). BALF is analyzed for concentrations of inflammatory, pro-fibrotic and tissue injury biomarkers including transforming growth factor β1, hyaluronic acid, tissue inhibitor of metalloproteinase-1, matrix matelloproteinase-7, connective tissue growth factor and lactate dehydrogenase activity, using commercially available ELISA. The cell pellet is re-suspended in PBS. Total cell counts are then obtained using a Hemavet hematology system (Drew Scientific, Wayne, Pa.) and differential cells counts are determined using Shandon cytospin (Thermo Scientific, Waltham, Mass.). Lung tissue is stained using hematoxylin and eosin (H&E) and trichrome and lung fibrosis is determined by semiquantitative histopathological scoring (Ashcroft T. et al. J. Clin. Path. 1988; 41; 4, 467-470) using light microscopy (10× magnification) and quantitative, computer-assisted densitometry of collagen in lung tissue sections using light microscopy. The data are plotted using Graphpad prism and statistical differences between groups determined.

C57BL/6 mice = assay: Mouse unilateral ureteral obstruction kidney fibrosis model; format: in vivo; settings: compared to untreated group
Method: Female C57BL/6 mice (Harlan, 20-25 g) housed 4/cage will be given free access to food and water and allowed to acclimate for at least 7 days prior to test initiation. After the habituation phase, mice undergo unilateral ureteral obstruction (UUO) surgery or sham to left kidney. Briefly, a longitudinal, upper left incision is performed to expose the left kidney. The renal artery is located and 6/0 silk thread is passed between the artery and the ureter. The thread is looped around the ureter and knotted 3 times insuring full ligation of ureter. The kidney is returned to abdomen, the abdominal muscle is sutured and the skin is stapled closed. Mice are returned to their cages and monitored daily for the duration of the experiment. Test compound or vehicle is delivered po, ip or sc daily. The route and frequency of dosing is based on previously determined pharmacokinetic properties. All animals are sacrificed using inhaled isoflurane 4, 8 or 14 days after UUO surgery. Following sacrifice blood is drawn via cardiac puncture, the kidneys are harvested and one half of the kidney is frozen at −80° C. and the other half is fixed in 10% neutral buffered formalin for histological assessment of kidney fibrosis using light microscopy (10× magnification). Kidney tissue homogenates are analyzed for collagen levels using Sircol (Biocolor Ltd, UK). Fixed kidney tissue is also stained using hematoxylin and eosin (H&E) and trichrome and kidney fibrosis is determined by quantitative, computer-assisted densitometry of collagen in […] tissue sections using light microscopy and collagen content in kidney lysate. Plasma and kidney tissue lysates are also analyzed for concentrations of inflammatory, pro-fibrotic and tissue injury biomarkers including transforming growth factor β1, hyaluronic acid, tissue inhibitor of metalloproteinase-1, and plasminogen activator inhibitor-1, using commercially available ELISA. The resulting data are plotted using Graphpad prism and statistical differences between groups determined.

With Cc1noc(-c2ccc(-c3ccc(C4(C(=O)O)CC4)cc3)cc2)c1NC(=O)O[C@H](C)c1ccccc1 [Compound 1, 1-{4′-[3-Methyl-4-((R)-1-phenyl-ethoxycarbonylamino)-isoxazol-5-yl]-biphenyl-4-yl}-cyclopropanecarboxylic acid] the “LPA-induced Evan's blue dye leak into the skin” value (BALB/c mice) was “reduced”, the IC50 [1] was less than 100 nM and the “BALF MMP-7” value (C57B1/6 mice; 7-day bleomycin model) was “reduced”. For the same compound, the “BALF TGFβ1” value (C57B1/6 mice; 7-day bleomycin model) was “reduced”, the BALF collagen (C57B1/6 mice; 7-day bleomycin model) was “reduced” and the BALF hyaluronan (C57B1/6 mice; 7-day bleomycin model) was “reduced”. For the same compound, the “BALF inflammatory cell influx” value (C57B1/6 mice; 7-day bleomycin model) was “reduced”, the BALF protein (C57B1/6 mice; 7-day bleomycin model) was “reduced” and the “collagen concentration in BALF” value (C57B1/6 mice; acute setting (3 day)) was “significantly reduced”. For the same compound, the “total protein concentration in BALF” value (C57B1/6 mice; acute setting (3 day)) was “significantly reduced”, the total lung collagen (C57B1/6 mice; dosed prophylactically (day 0-day 14)) was “decreased” and the total lung collagen (C57B1/6 mice; dosed therapeutically (day 3-day 14)) was “decreased”. The hyaluronic acid (C57BL/6 mice) was “reduced”, the “plasminogen activator inhibitor-1” value (C57BL/6 mice) was “reduced” and the “tissue inhibitor of metalloproteinase-1” value (C57BL/6 mice) was “reduced”. The total kidney collogen (C57BL/6 mice) was “reduced”, the “transforming growth factor β1” value (C57BL/6 mice) was “reduced” and the “collagen Type 1” value (C57BL/6 mice; kidney) was “reduced”.
